The values below come from publication PMC5148701 (Journal of medicinal chemistry, 2016).

In one assay the target is D2L receptors (Homo sapiens, UniProt P14416). The experiment in a line: D2R β-arrestin-2 recruitment Tango assay. The format is cell-based. Conditions: for Emax: HTLA, read-out: β-arrestin Emax (%); for EC50: β-arrestin EC50 (nM), HTLA cells.
The next assay concerns the target hD2L receptors (Homo sapiens, UniProt P14416). The assay can be described thus: D2R Gi/o-mediated cAMP inhibition assay. Conditions: for Emax: HEK-293T; for activity in Gi/o signaling (in words) / decrease of potency in Gi/o pathway compared to compound 1: cAMP inhibition assay. The format is cell-based.
[1] abbreviates: read-out: cAMP Emax (%), HEK293T cells, GloSensor-22F, normalized to maximum cAMP inhibition by quinpirole (100%).

Like-named read-outs stand apart in the source and are kept apart here.

Sequence of D2L receptors (P14416 whole entry): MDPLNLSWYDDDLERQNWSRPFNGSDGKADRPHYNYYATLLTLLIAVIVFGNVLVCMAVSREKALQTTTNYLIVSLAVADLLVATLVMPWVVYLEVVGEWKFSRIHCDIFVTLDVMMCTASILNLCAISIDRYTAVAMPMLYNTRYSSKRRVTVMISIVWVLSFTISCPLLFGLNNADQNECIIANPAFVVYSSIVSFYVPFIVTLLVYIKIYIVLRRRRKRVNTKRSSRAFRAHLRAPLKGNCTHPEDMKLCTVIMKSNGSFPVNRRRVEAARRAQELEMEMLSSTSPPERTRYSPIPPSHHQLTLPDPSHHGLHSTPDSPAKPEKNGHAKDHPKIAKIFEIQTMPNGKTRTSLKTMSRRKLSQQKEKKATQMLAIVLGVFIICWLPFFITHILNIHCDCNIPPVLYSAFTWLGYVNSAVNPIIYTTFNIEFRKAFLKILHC
Sequence of hD2L receptors (P14416 whole entry): as above

Broadly, the Emax is the maximal effect, on the per cent scale that the assay sets. What is called EC50 is the concentration that produces a half-maximal response. As to `CCc1nc2cc(OCCCCN3CCN(c4cccc5c4OCCN5)CC3)ccc2s1` [Compound 50, 8-(4-(4-((2-Ethylbenzo[d]thiazol-5-yl)oxy)butyl)piperazin-1-yl)-3,4-dihydro-2H-benzo[b][1,4]oxazine], the Emax at D2L receptors was found to be 33%. This compound also yielded an EC50 on D2L receptors (Tango assay) of 6.4 nM.

For the compound `CC(C)c1nc2cc(OCCCCN3CCN(c4cccc(Cl)c4Cl)CC3)ccc2s1` [Compound 19, 5-(4-(4-(2,3-Dichlorophenyl)piperazin-1-yl)butoxy)-2-isopropylbenzo[d]thiazole], the maximum response (Emax) was 33% on hD2L receptors (setting [1]) and less than 20% at D2L receptors.

Take `CNc1nc2cc(OCCCCN3CCN(c4cccc5c4OCCO5)CC3)ccc2s1` [Compound 57, 5-(4-(4-(2,3-Dihydrobenzo[b][1,4]dioxin-5-yl)piperazin-1-yl)butoxy)-N-methylbenzo[d]thiazol-2-amine]: the “activity in Gi/o signaling (in words)” value on hD2L receptors is “inactive”. Moreover, the “activity in β-arrestin recruitment (in words)” value at D2L receptors (Tango assay) is “inactive”.

On to `Cc1ccc2cccc(N3CCN(CCCCOc4ccc5sc(C)nc5c4)CC3)c2n1` [Compound 36, 2-Methyl-5-(4-(4-(2-methylquinolin-8-yl)piperazin-1-yl)butoxy)benzo[d]thiazole], for which the Emax at hD2L receptors (read-out: cAMP Emax (%)) is 25%; at D2L receptors, less than 20%.

As to `Cc1nc2cc(OCCCCN3CCN(c4cccc(-c5ccccc5)c4C)CC3)ccc2s1` [Compound 44, 2-Methyl-5-(4-(4-(2-methyl-[1,1'-biphenyl]-3-yl)piperazin-1-yl)butoxy)benzo[d]thiazole], the “activity in Gi/o signaling (in words)” value on hD2L receptors is “completely inactive”. Besides, the “activity in β-arrestin recruitment (in words)” value on D2L receptors (Tango assay) was “completely inactive”.

As to `O=c1[nH]c2cc(OCCCCN3CCN(c4cccc(Cl)c4Cl)CC3)ccc2s1` [Compound 7, 5-(4-(4-(2,3-Dichlorophenyl)piperazin-1-yl)butoxy)benzo[d]thiazol-2(3H)-one], the Emax on hD2L receptors (read-out: cAMP Emax (%)) is 67%; at D2L receptors, 59%. Besides, the midpoint of the response on D2L receptors (Tango assay), the EC50, lay at 2.6 nM.

Regarding `Cc1nc2cc(OCCCCN3CCCN(c4cccc(Cl)c4Cl)CC3)ccc2s1` [Compound 31, 5-(4-(4-(2,3-Dichlorophenyl)-1,4-diazepan-1-yl)butoxy)-2-methylbenzo[d]thiazole], the Emax at hD2L receptors (read-out: cAMP Emax (%)) was 22%; on D2L receptors, less than 20%. Also, at D2L receptors (Tango assay), the “activity in β-arrestin recruitment (in words)” value is “inactive”.

As to `Cc1nc2cc(OCCCCN3CCN(c4cccc5c4OCCO5)CC3)ccc2s1` [Compound 40, 5-(4-(4-(2,3-Dihydrobenzo[b][1,4]dioxin-5-yl)piperazin-1-yl)butoxy)-2-methylbenzo[d]thiazole], on hD2L receptors (read-out: cAMP Emax (%)), the Emax stood at 50%. The same compound displayed an EC50 at D2L receptors (Tango assay) of 3.6 nM.

`CN(C)c1nc2cc(OCCCCN3CCN(c4cccc(Cl)c4Cl)CC3)ccc2s1` [Compound 25, 5-(4-(4-(2,3-Dichlorophenyl)piperazin-1-yl)butoxy)-N,N-dimethylbenzo[d]thiazol-2-amine]: on hD2L receptors, the “activity in Gi/o signaling (in words)” value was “did not show any activity”. Besides, the “activity in β-arrestin recruitment (in words)” value at D2L receptors (Tango assay) is listed as “did not show any activity”.

Consider `Cc1nc2ccc(OCCCCN3CCN(c4cccc(Cl)c4Cl)CC3)cc2s1` [Compound 3, 6-(4-(4-(2,3-Dichlorophenyl)piperazin-1-yl)butoxy)-2-methylbenzo[d]thiazole], for which the results for the Emax on hD2L receptors (read-out: cAMP Emax (%)) and at D2L receptors were 42% and 22%, respectively. Further, the “decrease of potency in Gi/o pathway compared to compound 1” value on hD2L receptors came to 2 fold. In addition, the “decrease of potency in β-arrestin recruitment compared to compound 1” value on D2L receptors (Tango assay) turned out to be 5 fold. The compound further yielded an EC50 on D2L receptors (Tango assay) of 76 nM.

For `CCc1nc2cc(OCCCCN3CCN(c4cccc5ccc(C)nc45)CC3)ccc2s1` [Compound 48, 2-Ethyl-5-(4-(4-(2-methylquinolin-8-yl)piperazin-1-yl)butoxy)benzo[d]thiazole], the Emax was 33% on hD2L receptors (setting [1]) and less than 20% on D2L receptors.

`CCc1nc2cc(OCCCCN3CCN(c4cccc5c4OCCO5)CC3)ccc2s1` [Compound 52, 5-(4-(4-(2,3-Dihydrobenzo[b][1,4]dioxin-5-yl)piperazin-1-yl)butoxy)-2-ethylbenzo[d]thiazole]: the “activity in Gi/o signaling (in words)” value on hD2L receptors was “inactive”. Moreover, the “activity in β-arrestin recruitment (in words)” value at D2L receptors (Tango assay) is “inactive”.

With `Cc1nc2cc(OCCCN3CCN(c4cccc(Cl)c4Cl)CC3)ccc2s1` [Compound 2, 5-(3-(4-(2,3-Dichlorophenyl)piperazin-1-yl)propoxy)-2-methylbenzo[d]thiazole], the “D2R agonist profile in β-arrestin and Gi/o pathways” value on hD2L receptors (compared with β-arrestin recruitment Tango assay) was “balanced D2R agonist”.

For the compound `Cc1nc2cc(OCCCCN3CCC(c4cccc(Cl)c4Cl)CC3)ccc2s1` [Compound 30, 5-(4-(4-(2,3-Dichlorophenyl)piperidin-1-yl)butoxy)-2-methylbenzo[d]thiazole], the maximal response (Emax) was found to be 66% on hD2L receptors (read-out: cAMP Emax (%)) and 31% on D2L receptors. For the same compound, on D2L receptors (Tango assay), the EC50 was found to be 49 nM.

Consider `Cc1nc2cc(OCCCCN3CCN(c4cccc5c4OCCN5)CC3)ccc2s1` [Compound 39, 8-(4-(4-((2-Methylbenzo[d]thiazol-5-yl)oxy)butyl)piperazin-1-yl)-3,4-dihydro-2H-benzo[b][1,4]oxazine], for which the results for the maximal response (Emax) on hD2L receptors (read-out: cAMP Emax (%)) and on D2L receptors were 29% and less than 20%, respectively. At D2L receptors (Tango assay), the “activity in β-arrestin recruitment (in words)” value is listed as “did not recruit β-arrestin at all”.

`CC(C)c1nc2cc(OCCCCN3CCC(c4cccc(Cl)c4Cl)CC3)ccc2s1` [Compound 47, 5-(4-(4-(2,3-Dichlorophenyl)piperidin-1-yl)butoxy)-2-isopropylbenzo[d]thiazole]: the Emax at hD2L receptors (setting [1]) is 33%; on D2L receptors it was less than 20%.

Regarding `COc1ccccc1N1CCN(CCCCOc2ccc3sc(C)nc3c2)CC1` [Compound 32, 5-(4-(4-(2-Methoxyphenyl)piperazin-1-yl)butoxy)-2-methylbenzo[d]thiazole], the Emax on hD2L receptors (read-out: cAMP Emax (%)) worked out at 61%; at D2L receptors, 25%. For the same compound, the “decrease of potency in Gi/o pathway compared to compound 1” value on hD2L receptors is given as “around 5 fold”. The compound further registered an EC50 on D2L receptors (Tango assay) of 8.5 nM.

`CNc1nc2cc(OCCCCN3CCN(c4cccc5c4OCCN5)CC3)ccc2s1` [Compound 56, 5-(4-(4-(3,4-Dihydro-2H-benzo[b][1,4]oxazin-8-yl)piperazin-1-yl)butoxy)-N-methylbenzo[d]thiazol-2-amine]: the maximum response (Emax) at hD2L receptors (setting [1]) was 49%; on D2L receptors it was 29%. The compound further registered an EC50 on D2L receptors (Tango assay) of 6.5 nM.

With `CC(C)c1nc2cc(OCCCCN3CCN(c4cccc5c4OCCN5)CC3)ccc2s1` [Compound 51, 8-(4-(4-((2-Isopropylbenzo[d]thiazol-5-yl)oxy)butyl)piperazin-1-yl)-3,4-dihydro-2H-benzo[b][1,4]oxazine], on hD2L receptors (setting [1]), the Emax turned out to be 48%.

Regarding `Clc1nc2cc(OCCCCN3CCN(c4cccc(Cl)c4Cl)CC3)ccc2s1` [Compound 6, 2-Chloro-5-(4-(4-(2,3-dichlorophenyl)piperazin-1-yl)butoxy)benzo[d]thiazole], the Emax on hD2L receptors (setting [1]) came out at 50%; on D2L receptors, 40%. Moreover, the 50% effective concentration (EC50) on D2L receptors (Tango assay) stood at 48 nM.

Turning to `Cc1nc2ccc(OCCCCN3CCC(c4cccc(Cl)c4Cl)CC3)cc2s1` [Compound 58, 6-(4-(4-(2,3-Dichlorophenyl)piperidin-1-yl)butoxy)-2-methylbenzo[d]thiazole], the maximal effect (Emax) is 56% at hD2L receptors (setting [1]) and 24% at D2L receptors. At D2L receptors (Tango assay), the response was half-maximal at 460 nM (EC50).

For `CCc1nc2cc(OCCCCN3CCN(c4cccc(Cl)c4Cl)CC3)ccc2s1` [Compound 18, 5-(4-(4-(2,3-Dichlorophenyl)piperazin-1-yl)butoxy)-2-ethylbenzo[d]thiazole], the Emax at hD2L receptors (setting [1]) is 43%; on D2L receptors, less than 20%.

Turning to `Cc1nc2cc(OCCCCN3CCN(c4cccc5[nH]c(=O)oc45)CC3)ccc2s1` [Compound 45, 7-(4-(4-((2-Methylbenzo[d]thiazol-5-yl)oxy)butyl)piperazin-1-yl)benzo[d]oxazol-2(3H)-one], the Emax at hD2L receptors (read-out: cAMP Emax (%)) came out at 90%; at D2L receptors it was 88%. A half-maximal response at D2L receptors (Tango assay) (EC50) required 0.36 nM.

For the compound `FC(F)(F)c1nc2cc(OCCCCN3CCN(c4cccc(Cl)c4Cl)CC3)ccc2s1` [Compound 11, 5-(4-(4-(2,3-Dichlorophenyl)piperazin-1-yl)butoxy)-2-(trifluoromethyl)benzo[d]thiazole], the Emax at D2L receptors was found to be 40%.

On to `Cc1nc2cc(OCCCCN3CCN(c4cccc(Cl)c4Cl)[C@@H](C)C3)ccc2s1` [Compound 34, (S)-5-(4-(4-(2,3-Dichlorophenyl)-3-methylpiperazin-1-yl)butoxy)-2-methylbenzo[d]thiazole], for which the “activity in Gi/o signaling (in words)” value at hD2L receptors is listed as “no appreciable activity”. Further, the “activity in β-arrestin recruitment (in words)” value on D2L receptors (Tango assay) is listed as “no appreciable activity”.
